Assay results from patent US9241891B2, “Personal care compositions comprising self-assembling peptides” (The Procter & Gamble Company, priority 2012, dated 2016).
Where two headings read alike, the source gives them in different places.

Test system: CLAUDIN 1
Conditions: human keratinocytes
Experimental: Cultures of human keratinocytes are treated with two concentrations of solutions, of the hexadecapeptide PuraMatrix™ (supplied by BD Science). The lower concentration, which is below the estimated critical aggregation concentration (CAC) at which the RADA-16I (SEQ ID NO:1) monomer self-assembles, while the higher concentration is above the CAC.

Sequence: RADARADARADARADA [PuraMatrix ™]
- CLDN1 LEVEL (High Concentration, above the CAC): 1.39
- CLDN1 LEVEL (Low Concentration, below the estimated critical aggregation concentration (CAC)): 1.09
- CLAUDIN 1 regulation (in words) (higher concentration, above the estimated critical aggregation concentration): significantly upregulates
